According to patent US20260048145A1, “COMPOSITIONS AND METHODS FOR TREATING DRUG ADDICTION” (The Children's Medical Center Corporation, priority 2022, published 2026):
Numbered stars: 1 amine (or outer) side, 2 acyl side, 3 side chain; on linkers, the order of the positions; unused ones are H or OH. Square brackets hold non-standard residues; d marks the D form. Peptide text beside a SMILES is read from it. NMeF = CN[C@@H](Cc1ccccc1)C(=O)O; Suc = O=C(CCC(=O)[*:2])[*:1]

Columns and labels:
NK3R [1] = target: T1, NK3R (Mus musculus, UniProt P47937); test: Cocaine-CPP with systemic injection of senktide; format: in vivo, mice; conditions: systemic injection of senktide vs saline; CPP score
T1 construct: from tissue; host or cells: whole living mice (in vivo behavioural tests)
T1 sequence (P47937 1-452): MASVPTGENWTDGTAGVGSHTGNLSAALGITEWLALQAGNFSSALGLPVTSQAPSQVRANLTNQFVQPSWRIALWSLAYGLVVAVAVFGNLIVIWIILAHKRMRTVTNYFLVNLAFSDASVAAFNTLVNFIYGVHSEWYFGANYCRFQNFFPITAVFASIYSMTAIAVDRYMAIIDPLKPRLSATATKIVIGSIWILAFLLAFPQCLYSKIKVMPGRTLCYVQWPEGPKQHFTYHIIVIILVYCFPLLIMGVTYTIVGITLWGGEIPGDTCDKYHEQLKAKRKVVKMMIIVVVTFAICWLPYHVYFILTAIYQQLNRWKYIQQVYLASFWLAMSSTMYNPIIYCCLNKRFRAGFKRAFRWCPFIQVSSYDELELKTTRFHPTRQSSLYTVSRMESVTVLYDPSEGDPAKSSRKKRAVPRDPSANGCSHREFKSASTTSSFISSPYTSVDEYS
Experimental: (§1) FIGS. 12A-12B show systemic injection of a TacR3 agonist, senktide, reduced cocaine-conditioned place preference and cocaine-induced locomotion. […] The CPP scores were calculated by subtracting the time spent in pre-conditioning phase from the time spent in post-conditioning phase, *, […], unpaired t-test.
A two-compartment CPP chamber was used with one compartment with grid rod style floor and the other with mesh style floor (Med Associates). Chamber size is 25×19×17 cm (L×D×H). Mice trajectories were tracked by infra-red photobeam detectors, and the travel distance and the duration the mice spent in the two compartments were recorded. The CPP protocol consists of three sessions that include pre-conditioning, conditioning, and post-conditioning.
The Tac2 gene encodes the neuropeptide neurokinin B (NKB). NKB has high affinity for neurokinin 3 receptor (NK3R, encoded by the TacR3 gene). The NKB-NK3R (ligand-receptor) signal pathway is functional in both central and peripheral nervous systems and have been implicated in diverse physiological processes, such as reproduction, inflammation, and psychiatric disorders^55. To evaluate the functional relevance of the NKB-NK3R pathway in addiction, an NK3R agonist, senktide, was systemically administered to mice, and then addiction-related behavioral tests were performed. […]

NK3R [2] = target: T1, NK3R; test: Cocaine-induced locomotion assay with i.p. injection of senktide; format: in vivo, mice; conditions: i.p. injection of senktide vs saline; distance traveled in 30-minute post-treatment period
Experimental: as §1
The basal level of locomotion as well as cocaine-induced change of locomotor activity were assessed in the open field arena the same as the OFT. For chemogenetics experiments, 20 minutes after administration of either saline or CNO, mice were individually placed in the center of the test chamber, triggering the infra-red tracking system to record locomotor activity, as measured by the number of beam breaks. For optogenetic experiments, the total duration of the behavioral test was 30 minutes, which was divided into […] 5×6-min epochs (with 3-minutes laser on. 3-minutes laser off, respectively). Different groups of mice were balanced across the 8 chambers to avoid potential environmental bias.
The Tac2 gene encodes the neuropeptide neurokinin B (NKB). NKB has high affinity for neurokinin 3 receptor (NK3R, encoded by the TacR3 gene). The NKB-NK3R (ligand-receptor) signal pathway is functional in both central and peripheral nervous systems and have been implicated in diverse physiological processes, such as reproduction, inflammation, and psychiatric disorders^55. […]

In the case of `CSCC[C@H](NC(=O)[C@H](CC(C)C)NC(=O)CNC(=O)[C@H](Cc1ccccc1)N(C)C(=O)[C@H](Cc1ccccc1)NC(=O)[C@H](CC(=O)O)NC(=O)CCC(=O)O)C(N)=O` [senktide, Suc-Asp-Phe-(Me-Phe)-Gly-Leu-Met] (Suc-DF[NMeF]GLM-NH2), the cocaine-conditioned place preference (NK3R [1]) is reported as “reduced” and the cocaine-induced locomotion (NK3R [2]) is reported as “reduced”.
